Common to all, as to assay type: cell-based, human
For one assay, the system named is cyclooxygenase-2 (COX-2). Description: COX-2 protein in monocyte membranes, Western blot. As to conditions: LPS 25 ng/ml; HMW-uPA 30 nM or plasmin 360 nM; FIG. 4A. As for the experimental part:
Cell protein isolation for the determination of COX-2 protein levels were prepared as previously described (Zhang et al., J. Clin. Invest. 99: 894-900, 1997). Briefly, 20×10^6 monocytes in 4 ml of DMEM were cultured in suspension in 17 ml polypropylene tubes overnight in the presence or absence of reagents. The cells were then washed in phosphate buffered saline with protease inhibitors. The cell pellets were resuspended in 250 mM sucrose containing protease inhibitors and sonicated (Ultrasonic Cell Disrupter, Kontes, American Instrument Exchange, Inc., Haverhill, Mass.). Nuclear debris and unbroken cells were pelleted at 100×g and the supernatant microfuged at 1,500×g to pellet cell membrane proteins. Equal amounts of protein were loaded onto 12% Tris Glycine gels. […] Equal loading of samples was measured with mouse anti-β-actin antibodies.
(§1) Western blots for MMP-1, MAPKs and COX-2 were incubated overnight with primary antibodies, washed and analyzed by the addition of Alexa Fluor 680 goat anti-rabbit or Alexa Fluor 750 goat anti-mouse antibodies (Molecular Probes® Inc., Eugene, Oreg.) and the infrared fluorescence detected with the Odyssey infrared imaging system (LI-COR, Lincoln, Nebr.). Densitometry analysis of the bands on the Western blots was determined with the LI-COR software analysis program or the ImageQuant software analysis program (Amersham Biosciences, Piscataway, N.J.).

The subject of the next assay is MMP-1 mRNA in monocytes. Description: MMP-1 mRNA in monocytes, semiquantitative RT-PCR. The following applies: FIG. 2C. As for the experimental part: Plasmin activity assay. Plasmin activity was determined with the SPECTROZYME PL kit (American Diagnostica Inc., Stamford, Conn.) which utilizes the chromogenic substrate H-D-norleucyl-hexahydrotyrosol-lysine-para-nitroanilide diacetate. For detection of cell-associated plasmin activity, monocytes were cultured at 1×10^6/well in Hanks Balanced Solution containing calcium and magnesium (Hyclone, Logan, Utah) with the plasmin substrate. Kinetic absorbance readings were measured at 405 nm. RT-PCR. Total cellular RNA was extracted with the RNeasy Mini Kit (QIAGEN® Inc., Valencia, Calif.) 8 hours after stimulation of monocytes with LPS. Transcript levels of MMP-1 were determined using semiquantitative reverse transcriptase-polymerase chain reaction (RT-PCR) with GADPH as an internal control. […] The amplified DNA was separated by 1.7% agarose gel electrophoresis, stained with SYTO 60 red fluorescent nucleic acid stain (Molecular Probes®, Eugene, Oreg.), and the intensity of the stained bands was analyzed with an infrared imaging system. […] FITC-conjugated BSA, plasmin (2.5 μg in 10 μl) or anti-human antibodies (1-2.5 μg/10 μl) then were added, respectively, incubated for 30 min and washed and analyzed by the FACSCalibur system (Becton Dickinson Biosciences, Franklin Lakes, N.J.). […] Flow cytometry results were analyzed by CELLQuest software (Becton Dickinson Biosciences, Franklin Lakes, N.J.). […]

The subject of another assay is PGE2. In words: PGE2 in monocyte culture supernatants, ELISA. As to conditions: LPS-stimulated monocytes, 24 hours; FIG. 4B. As for the experimental part:
FIGS. 4A-4C illustrate that stimulation of MMP-1 by HMW-uPA and plasmin is mediated in part by PGE2. FIG. 4A is a digital image depicting cyclooxygenase-2 (COX-2) protein levels detected in monocyte cultures determined by Western blot analysis in the presence of HMW-uPA (30 nM) or plasmin (360 nM) in the absence or presence of LPS (25 ng/ml). β-actin protein levels were detected to serve as an indicator for equal sample loading. FIG. 4B is a bar graph illustrating media levels of PGE2 measured by ELISA at 24 hours. FIG. 4C is a digital image illustrating MMP-1 protein levels detected by Western blot analysis in monocyte cultures following incubation with indomethacin for 30 minutes prior to the addition of LPS, HMW-uPA, plasmin or PGE2 (1 μM).

In another assay the test system is p38 MAPK. Description: Phosphorylation of p38 MAPK in monocytes, Western blot. As to conditions: LPS-stimulated monocytes, 1 hour; FIG. 5B. The procedure: (§2) For detection of the levels of activated ERK1/2 and p38 MAPKs monocytes were cultured in DMEM at 5×10^6/ml in suspension. Ten to 60 minutes after the addition of reagents, the cells were pelleted and lysed with SDS loading buffer (prepared as described above). The supernatants were loaded onto 12% Tris-glycine gels. The blots were then incubated overnight with mouse anti-human antibodies against the phosphorylated forms of ERK1/2 and p38 and with rabbit anti-human antibodies against total ERK1/2 and p38 as a measure of equal loading of the gels.
as §1

A further assay relates to ERK1/2. Description: Phosphorylation of ERK1/2 in monocytes, Western blot. As to conditions: LPS-stimulated monocytes, 1 hour; FIG. 5B. The procedure: as §2, §1

Regarding plasmin, in the assay with cyclooxygenase-2 (COX-2), the “LPS-induced COX-2 protein level” value is on record as “increased”. For the same substance, the “MMP-1 mRNA level” value in the assay on MMP-1 mRNA in monocytes (LPS-stimulated monocytes, 8 hours) was “dose-dependent increase”. Also, the “induction of MMP-1 mRNA” value in the assay on MMP-1 mRNA in monocytes (control (unstimulated) monocytes) is “did not induce MMP-1”. Also, the “PGE2 levels in monocyte culture supernatants” value in the assay on PGE2 is listed as “increased PGE2 levels”. For the same substance, in the assay on p38 MAPK, the “phosphorylation of p38” value was “induced increases”. The “phosphorylation of ERK1/2” value with ERK1/2 was “induced increases”.

The values above are taken from US20090142330A1, “Use of inactive-plasmin to treat chronic inflammatory disease and tumors” (The Government of the United States of America as …, priority 2007, published 2009).
